This assay concerns human AML cell line MV4;11. The experiment in a line: Nude mouse xenograft model derived from human AML cell line MV4;11: tumor growth. The assay is classed as in vivo, mice. As to conditions: treated for 19 days. Here is the method:
MV4;11 (CRL-9591) cells were obtained from ATCC. According to the Catalogue of Somatic Mutations in Cancer of the Wellcome Trust Sanger Institute, UK, this cell line carries a mutation in the FLT3 gene. Cells were cultured in T175 tissue culture flasks at 37° C. and 5% CO2. The medium used was IMDM supplemented with 10% fetal calf serum, 1% NEAA, 1% sodium pyruvate and 1% glutamine.
To establish subcutaneous tumors, MV4;11 cells were harvested and resuspended in PBS+5% FCS at 5×10^7 cells/ml. 50 μl of the cell suspension containing 2.5×10^6 cells was then injected subcutaneously into the right flank of the mice (1 site per mouse). Growth factor reduced BD Matrigel™ Matrix (BD Biosciences) was added to the cell suspension at a ratio of 1:1 before the injection. When tumors were well established and had reached a tumor volume of ˜120 mm^3, mice were randomly distributed between the treatment and the vehicle control groups 14 days after injecting the cells.
The solution was freshly made up each injection day.
The application solution was prepared on each injection day.
Animals were treated for 19 days.

In the case of `CC[C@@H]1C(=O)N(C)c2cnc(Nc3ccc(C(=O)N[C@H]4CC[C@H](N5CCN(CC6CC6)CC5)CC4)cc3OC)nc2N1C(C)C` [Volasertib, N-[trans-4-[4-(cyclopropylmethyl)-1-piperazinyl]cyclohexyl]-4-[[(7R)-7-ethyl-5,6,7,8-tetrahydro-5-methyl-8-(1-methylethyl)-6-oxo-2-pteridinyl]amino]-3-methoxy-benzamide], the “T/C (ratio of median tumor volume of treated vs. control tumors)” value stood at 79% (Example 1, Volasertib alone 10 mg/kg once weekly i.v.) and 39% (Example 2, Volasertib alone 20 mg/kg once weekly i.v.).

Turning to `Nc1ncn([C@@H]2O[C@H](CO)[C@@H](O)[C@H]2O)c(=O)n1` [azacitidine, Azacitidine], the “T/C (ratio of median tumor volume of treated vs. control tumors)” value is reported as 78% (Example 1, Azacitidine alone 40 mg/kg once weekly i.v.) and 78% (Example 2, Azacitidine alone 40 mg/kg once weekly i.v.).

The values are drawn from patent publication US20150031643A1, “COMBINATION TREATMENT OF ACUTE MYELOID LEUKEMIA AND MYELODYSPLASTIC SYNDROME II” (Boehringer Ingelheim International GmbH, priority 2013, published 2015).
